A word on the Cmax: it is the peak of the concentration-time curve. One may read the Tmax as the time from dosing to the highest level.

Data set [1] in a line: Human pharmacokinetic parameters following a single Sovaprevir tablet dose. It is filed as in vivo. Particulars: single tablet dose 200 mg, mean. As to the method:
A single 200 mg dose of Sovaprevir was administered to human subjects.
The pharmacokinetic parameters shown in TABLE 4 were measured in humans following administration of a single Sovaprevir tablet dose.

Assay in data set [2]: as above
It is filed as in vivo. The conditions noted are these: mean.

The mark [3] stands for this setting: single tablet dose 100 mg (Fasted).
Where [4] appears, read: single tablet dose 100 mg (Fed).

Consider `C=C[C@@H]1C[C@]1(NC(=O)[C@@H]1C[C@@H](Oc2cc(-c3ccccc3)nc3cc(OC)ccc23)CN1C(=O)[C@@H](CC(=O)N1CCCCC1)C(C)(C)C)C(=O)NS(=O)(=O)C1CC1` [Sovaprevir], for which the “AUC(0-∞)” value in data set [1] is 500.0 ng·h/mL; in data set [2] (setting [3]), 302 ng·h/mL; in data set [2] (setting [4]) it was 228 ng·h/mL; in data set [2] (single tablet dose 250 mg) it was 748.8 ng·h/mL; in data set [2] (single tablet dose 300 mg), 1314 ng·h/mL. The Cmax in data set [1] is recorded as 109 ng/mL; in data set [2] (setting [3]), 67.2 ng/mL; in data set [2] (setting [4]), 61.9 ng/mL; in data set [2] (single tablet dose 250 mg) it was 172 ng/mL; in data set [2] (single tablet dose 300 mg), 333 ng/mL. In addition, the Tmax in data set [1] worked out at 2.61 h; in data set [2] (setting [3]), 1.58 h; in data set [2] (setting [4]), 4.20 h; in data set [2] (single tablet dose 250 mg), 3.40 h; in data set [2] (single tablet dose 300 mg) it was 3.39 h. In addition, the “AUC(0-72)” value in data set [2] (setting [3]) came out at 288 ng·h/mL; in data set [2] (setting [4]), 220 ng·h/mL; in data set [2] (single tablet dose 200 mg) it was 489.9 ng·h/mL; in data set [2] (single tablet dose 250 mg), 735.6 ng·h/mL; in data set [2] (single tablet dose 300 mg), 1301 ng·h/mL.

(Values after patent publication US20140271855A1, “SOVAPREVIR TABLETS” (Achillion Pharmaceuticals Inc., priority 2013, published 2014).)
